Tested on: KRAS-mutant PDC multicell tumor spheroid viability
Assay: Anticancer human tumor 521955-158-R2-J5-PDC patient-derived pancreatic carcinoma cell line growth inhibition [KRAS2]
Details: for IC50: curve of first compound; for viability, T/C: stronger effect = lower value
Description: Multicellular complex tumor spheroid response to RAS pathway inhibitors in combination with a targeted agents in patient-derived cell lines with oncogenic KRAS variants from multiple cancer types
A high-throughput screen of multi-cell type tumor spheroids was designed to identify active combinations of targeted small molecules and KRAS pathway inhibitors. Complex spheroids include a stromal component modeled by human endothelial cells (HUVEC) and fibroblasts modeled by human mesenchymal stem cells (MSCs). The concentration ranges selected for each drug and investigational agent were based upon clinically achievable concentrations if the clinical Cmax of the agent was known.
Compounds. The drugs and investigational agents: BI-3406 (NSC825286), BAY-293 (NSC824723), batoprotafib (TNO155; NSC825523), sotorasib (AMG 510; NSC818433), MRTX1257 (NSC819558), elimusertib (BAY 1895344; NSC800525), molibresib (GSK525762; NSC774829), temuterkib (LY3214996; NSC803410), venetoclax (NSC766270), alisertib (NSC759677), olaparib (NSC753686), talazoparib (NSC767125), erdafitinib (NSC781556), ipatasertib (NSC767898), cabozantinib (NSC761068), nintedanib (NSC756659), abemaciclib (NSC768073), docetaxel (NSC628503), trametinib (NSC758246), and sapanisertib (NSC764658) were obtained from the National Cancer Institute (NCI) Developmental Therapeutics Program Chemical Repository. The FDA-approved anticancer drug set is available from the Developmental Therapeutics Program. […] The stock solutions were prepared in dimethyl sulfoxide (DMSO, Sigma-Aldrich, St. Louis, MO, cat. D2650) at 800-fold the tested concentration and stored at -70 degrees C prior to their use. All drugs and investigational agents were tested over a range starting from a high concentration at or near the clinical Cmax and decreasing in half-log increments. If the clinical Cmax for an agent had not been determined, the highest concentration tested was 10 microM.
Cell Culture. All cells were maintained in an incubator at 37 degrees C and 5% CO2 with 95% humidity. The PDC lines were cultured according to standard operating procedures established by the NCI PDMR (https://pdmr.cancer.gov/sops/default.htm). Briefly, all PDCs were thawed and cultured in Matrigel-coated flasks prepared with a working solution of 1X Ham's F-12 nutrient mix, without supplementation (Invitrogen, Waltham, MA, cat. 11765054), 100 U/mL penicillin-streptomycin (Invitrogen, cat. 15140122), and 2.5% Matrigel (Corning Inc., Corning, NY, cat. 354248) for the first three passages. All PDCs were cultured in complete DMEM/F-12 media containing advanced DMEM/F-12 (Invitrogen, cat. 12634028), 4.9% defined fetal bovine serum, heat inactivated (HyClone Laboratories Inc., Logan, UT, cat. SH30070.03HI), 389 ng/mL hydrocortisone (Sigma-Aldrich, cat. H4001), 9.7 ng/mL human EGF recombinant protein (Invitrogen, cat. PHG0313), 23.4 microg/mL adenine (Sigma-Aldrich, cat. A2786), 97.3 U/mL penicillin-streptomycin (Invitrogen, cat. 15140122), 1.9 mM L-glutamine (Invitrogen, cat. 25030081), and 9.7 microM Y-27632 dihydrochloride (Tocris Bioscience, Bristol, United Kingdom, cat. 1254). The PDCs were cultured in complete DMEM/F12 media without 9.7 microM Y-27632 dihydrochloride for at least two passages prior to the screen. The established cell line HOP-62 was cultured in RPMI 1640 medium, HEPES (Invitrogen, cat. 22400105) with 10% defined fetal bovine serum (HyClone Laboratories Inc., cat. SH30070.03) and 2 mM L-glutamine (Invitrogen, cat. 25030081). The pooled donor HUVEC were cultured in endothelial cell growth medium 2 (PromoCell, Heidelberg, Germany, cat. C-22011) and the hMSC were cultured in mesenchymal stem cell growth medium 2 (PromoCell, cat. C-28009). For all experiments, HUVEC and hMSC were used at passages </=5, while the malignant cell lines were used at passages </=15. […]

[1] = second compound 0.1 µM, first compound 0.0316 µM
[2] = second compound 0.1 µM, first compound 0.1 µM
[3] = second compound 0.1 µM, first compound 0.316 µM
[4] = second compound 0.1 µM, first compound 1 µM
[5] = second compound 0.1 µM, first compound 3.16 µM
[6] = second compound 0.1 µM, first compound 10 µM
[7] = second compound 0.316 µM, first compound 0.0316 µM
[8] = second compound 0.316 µM, first compound 0.1 µM
[9] = second compound 0.316 µM, first compound 0.316 µM
[10] = second compound 0.316 µM, first compound 1 µM
[11] = second compound 0.316 µM, first compound 3.16 µM
[12] = second compound 0.316 µM, first compound 10 µM
[13] = second compound 1 µM, first compound 0.0316 µM
[14] = second compound 1 µM, first compound 0.1 µM
[15] = second compound 1 µM, first compound 0.316 µM
[16] = second compound 1 µM, first compound 1 µM
[17] = second compound 1 µM, first compound 10 µM
[18] = second compound 3.16 µM, first compound 0.0316 µM
[19] = second compound 3.16 µM, first compound 0.1 µM
[20] = second compound 3.16 µM, first compound 0.316 µM
[21] = second compound 3.16 µM, first compound 1 µM
[22] = second compound 3.16 µM, first compound 3.16 µM
[23] = second compound 3.16 µM, first compound 10 µM
[24] = second compound 10 µM, first compound 0.0316 µM
[25] = second compound 10 µM, first compound 0.1 µM
[26] = second compound 10 µM, first compound 0.316 µM
[27] = second compound 10 µM, first compound 1 µM
[28] = second compound 10 µM, first compound 3.16 µM
[29] = second compound 10 µM, first compound 10 µM
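Further: viability read after seven days of drug exposure.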

SMILES	IC50 (second compound 0.1 µM)	IC50 (second compound 0.316 µM)	IC50 (second compound 1 µM)	IC50 (second compound 3.16 µM)	IC50 (second compound 10 µM)	viability, T/C [1]	viability, T/C [2]	viability, T/C [3]	viability, T/C [4]	viability, T/C [5]	viability, T/C [6]	viability, T/C [7]	viability, T/C [8]	viability, T/C [9]	viability, T/C [10]	viability, T/C [11]	viability, T/C [12]	viability, T/C [13]	viability, T/C [14]	viability, T/C [15]	other results
COc1cc(Nc2ncc3c(n2)-c2ccc(Cl)cc2C(c2c(F)cccc2OC)=NC3)ccc1C(=O)O + C=CC(=O)N1CCN(c2nc(=O)n(-c3c(C)ccnc3C(C)C)c3nc(-c4c(O)cccc4F)c(F)cc23)C(C)C1	< 31.6 nM	< 31.6 nM	< 31.6 nM	< 31.6 nM	< 31.6 nM	47.6%	49.3%	43%	42.2%	46.1%	38.8%	43.2%	44.5%	52.2%	44.5%	44.3%	36.4%	48.1%	44.8%	43.1%	viability, T/C [16]: 48%; viability, T/C [17]: 32.7%; viability, T/C [18]: 47.5%; viability, T/C [19]: 45.9%; viability, T/C [20]: 36%; viability, T/C [21]: 40.3%; viability, T/C [22]: 37%; viability, T/C [23]: 31.9%; viability, T/C [24]: 40.6%; viability, T/C [25]: 43.5%; viability, T/C [26]: 38.5%; viability, T/C [27]: 37.5%; viability, T/C [28]: 34.8%; viability, T/C [29]: 39.6%
COc1cc2nccc(Oc3ccc(NC(=O)C4(C(=O)Nc5ccc(F)cc5)CC4)cc3)c2cc1OC + C=CC(=O)N1CCN(c2nc(=O)n(-c3c(C)ccnc3C(C)C)c3nc(-c4c(O)cccc4F)c(F)cc23)C(C)C1	6550 nM	5780 nM	3980 nM	2500 nM	1240 nM	114%	122%	113%	124%	78.4%	33.5%	107%	111%	117%	108%	66.8%	34.7%	109%	119%	114%	viability, T/C [16]: 112%; viability, T/C (second compound 1 µM, first compound 3.16 µM): 54.2%; viability, T/C [17]: 32.9%; viability, T/C [18]: 83.7%; viability, T/C [19]: 109%; viability, T/C [20]: 94.4%; viability, T/C [21]: 75.4%; viability, T/C [22]: 44.2%; viability, T/C [23]: 20.9%; viability, T/C [24]: 55.2%; viability, T/C [25]: 64.1%; viability, T/C [26]: 58.7%; viability, T/C [27]: 53.9%; viability, T/C [28]: 32.6%; viability, T/C [29]: 10.4%
